# Assay results from the supplement of paper PMC10307832.
# Experiments:
# Test in all cases: relative viability (nuclei count vs DMSO), 5 days (fraction); higher = more cells survive
# NCI-H441 = test system: NCI-H441
# Procedure, shortened: (§1)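 Nuclei were stained with Hoechst during a one-step fixation (final 0.05% Triton X-100, 1% formaldehyde, 1 ug/ml Hoechst) carried out 5 days after dosing, then counted on 4× images. The cells, lung cancer lines in 1536-well plates, had been dosed by pin tool the day after seeding with one drug alone or a fixed anchor-drug dose plus five library-drug doses (not always all listed) in √10 steps. Relative viability is the nuclei count in treated wells divided by that in vehicle wells, and each value is the median of duplicate plates.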
# COR-L23 = test system: COR-L23
# Procedure, shortened: as §1
# NCI-H2170 = test system: NCI-H2170
# Procedure, shortened: as §1
# NCI-H520 = test system: NCI-H520
# Procedure, shortened: as §1
# NCI-H2347 = test system: NCI-H2347
# Procedure, shortened: as §1
# EPLC-272H = test system: EPLC-272H
# Procedure, shortened: as §1
# UMC-11 = test system: UMC-11
# Procedure, shortened: as §1
# NCI-H3122 = test system: NCI-H3122
# Procedure, shortened: as §1
# SW 900 = test system: SW 900
# Procedure, shortened: as §1
# H3255 = test system: H3255
# Procedure, shortened: as §1
# HCC-15 = test system: HCC-15
# Procedure, shortened: as §1
# NCI-H1650 = test system: NCI-H1650
# Procedure, shortened: as §1
# PC-14 = test system: PC-14
# Procedure, shortened: as §1
# NCI-H2023 = test system: NCI-H2023
# Procedure, shortened: as §1
# NCI-H322M = test system: NCI-H322M
# Procedure, shortened: as §1
# NCI-H2405 = test system: NCI-H2405
# Procedure, shortened: as §1
# NCI-H1734 = test system: NCI-H1734
# Procedure, shortened: as §1
# LOU-NH91 = test system: LOU-NH91
# Procedure, shortened: as §1
# 201T = test system: 201T
# Procedure, shortened: as §1
# NCI-H647 = test system: NCI-H647
# Procedure, shortened: as §1
# NCI-H1793 = test system: NCI-H1793
# Procedure, shortened: as §1
smiles,measurement,setting,value
Nc1ccn([C@@H]2O[C@H](CO)[C@@H](O)[C@@H]2O)c(=O)n1 [Cytarabine] + CC(=O)Nc1cccc(-n2c(=O)n(C3CC3)c(=O)c3c(Nc4ccc(I)cc4F)n(C)c(=O)c(C)c32)c1 [Trametinib] (partner 0.02 µM),relative viability,NCI-H441; first compound 0.005 µM,0.361
same,relative viability,NCI-H441; first compound 0.01581 µM,0.421
same,relative viability,NCI-H441; first compound 0.05 µM,0.451
same,relative viability,NCI-H441; first compound 0.1581 µM,0.242
same,relative viability,NCI-H441; first compound 0.5 µM,0.199
same,relative viability,COR-L23; first compound 0.005 µM,0.71
same,relative viability,COR-L23; first compound 0.01581 µM,0.529
same,relative viability,COR-L23; first compound 0.05 µM,0.546
same,relative viability,COR-L23; first compound 0.1581 µM,0.304
same,relative viability,COR-L23; first compound 0.5 µM,0.203
same,relative viability,NCI-H2170; first compound 0.005 µM,0.741
same,relative viability,NCI-H2170; first compound 0.01581 µM,0.665
same,relative viability,NCI-H2170; first compound 0.05 µM,0.581
same,relative viability,NCI-H2170; first compound 0.1581 µM,0.374
same,relative viability,NCI-H2170; first compound 0.5 µM,0.299
same,relative viability,NCI-H520; first compound 0.005 µM,0.696
same,relative viability,NCI-H520; first compound 0.01581 µM,0.684
same,relative viability,NCI-H520; first compound 0.05 µM,0.579
same,relative viability,NCI-H520; first compound 0.1581 µM,0.477
same,relative viability,NCI-H520; first compound 0.5 µM,0.484
same,relative viability,NCI-H2347; first compound 0.005 µM,0.277
same,relative viability,NCI-H2347; first compound 0.01581 µM,0.309
same,relative viability,NCI-H2347; first compound 0.05 µM,0.282
same,relative viability,NCI-H2347; first compound 0.1581 µM,0.236
same,relative viability,NCI-H2347; first compound 0.5 µM,0.257
same,relative viability,EPLC-272H; first compound 0.005 µM,0.302
same,relative viability,EPLC-272H; first compound 0.01581 µM,0.246
same,relative viability,EPLC-272H; first compound 0.05 µM,0.283
same,relative viability,EPLC-272H; first compound 0.1581 µM,0.211
same,relative viability,EPLC-272H; first compound 0.5 µM,0.22
same,relative viability,UMC-11; first compound 0.005 µM,0.487
same,relative viability,UMC-11; first compound 0.01581 µM,0.424
same,relative viability,UMC-11; first compound 0.05 µM,0.373
same,relative viability,UMC-11; first compound 0.1581 µM,0.216
same,relative viability,UMC-11; first compound 0.5 µM,0.183
same,relative viability,NCI-H3122; first compound 0.005 µM,0.221
same,relative viability,NCI-H3122; first compound 0.01581 µM,0.252
same,relative viability,NCI-H3122; first compound 0.05 µM,0.187
same,relative viability,NCI-H3122; first compound 0.1581 µM,0.177
same,relative viability,NCI-H3122; first compound 0.5 µM,0.139
same,relative viability,SW 900; first compound 0.005 µM,0.83
same,relative viability,SW 900; first compound 0.01581 µM,0.653
same,relative viability,SW 900; first compound 0.05 µM,0.662
same,relative viability,SW 900; first compound 0.1581 µM,0.23
same,relative viability,SW 900; first compound 0.5 µM,0.243
same,relative viability,H3255; first compound 0.005 µM,0.637
same,relative viability,H3255; first compound 0.01581 µM,0.652
same,relative viability,H3255; first compound 0.05 µM,0.639
same,relative viability,H3255; first compound 0.1581 µM,0.559
same,relative viability,H3255; first compound 0.5 µM,0.533
same,relative viability,HCC-15; first compound 0.005 µM,0.396
same,relative viability,HCC-15; first compound 0.01581 µM,0.281
same,relative viability,HCC-15; first compound 0.05 µM,0.381
same,relative viability,HCC-15; first compound 0.1581 µM,0.362
same,relative viability,HCC-15; first compound 0.5 µM,0.357
same,relative viability,NCI-H1650; first compound 0.005 µM,0.446
same,relative viability,NCI-H1650; first compound 0.01581 µM,0.419
same,relative viability,NCI-H1650; first compound 0.05 µM,0.452
same,relative viability,NCI-H1650; first compound 0.1581 µM,0.24
same,relative viability,NCI-H1650; first compound 0.5 µM,0.158
same,relative viability,PC-14; first compound 0.005 µM,0.712
same,relative viability,PC-14; first compound 0.01581 µM,0.669
same,relative viability,PC-14; first compound 0.05 µM,0.515
same,relative viability,PC-14; first compound 0.1581 µM,0.0885
same,relative viability,PC-14; first compound 0.5 µM,0.079
same,relative viability,NCI-H2023; first compound 0.005 µM,0.463
same,relative viability,NCI-H2023; first compound 0.01581 µM,0.253
same,relative viability,NCI-H2023; first compound 0.05 µM,0.169
same,relative viability,NCI-H2023; first compound 0.1581 µM,0.104
same,relative viability,NCI-H2023; first compound 0.5 µM,0.0963
same,relative viability,NCI-H322M; first compound 0.005 µM,0.484
same,relative viability,NCI-H322M; first compound 0.01581 µM,0.456
same,relative viability,NCI-H322M; first compound 0.05 µM,0.441
same,relative viability,NCI-H322M; first compound 0.1581 µM,0.429
same,relative viability,NCI-H322M; first compound 0.5 µM,0.402
same,relative viability,NCI-H2405; first compound 0.005 µM,0.648
same,relative viability,NCI-H2405; first compound 0.01581 µM,0.53
same,relative viability,NCI-H2405; first compound 0.05 µM,0.464
same,relative viability,NCI-H2405; first compound 0.1581 µM,0.401
same,relative viability,NCI-H2405; first compound 0.5 µM,0.317
same,relative viability,NCI-H1734; first compound 0.005 µM,0.361
same,relative viability,NCI-H1734; first compound 0.01581 µM,0.264
same,relative viability,NCI-H1734; first compound 0.05 µM,0.203
same,relative viability,NCI-H1734; first compound 0.1581 µM,0.132
same,relative viability,NCI-H1734; first compound 0.5 µM,0.119
same,relative viability,LOU-NH91; first compound 0.005 µM,0.758
same,relative viability,LOU-NH91; first compound 0.01581 µM,0.807
same,relative viability,LOU-NH91; first compound 0.05 µM,0.699
same,relative viability,LOU-NH91; first compound 0.1581 µM,0.657
same,relative viability,LOU-NH91; first compound 0.5 µM,0.644
same,relative viability,201T; first compound 0.005 µM,0.728
same,relative viability,201T; first compound 0.01581 µM,0.724
same,relative viability,201T; first compound 0.05 µM,0.76
same,relative viability,201T; first compound 0.1581 µM,0.709
same,relative viability,201T; first compound 0.5 µM,0.694
same,relative viability,NCI-H647; first compound 0.005 µM,0.449
same,relative viability,NCI-H647; first compound 0.01581 µM,0.317
same,relative viability,NCI-H647; first compound 0.05 µM,0.22
same,relative viability,NCI-H647; first compound 0.1581 µM,0.0976
same,relative viability,NCI-H647; first compound 0.5 µM,0.0793
same,relative viability,NCI-H1793; first compound 0.005 µM,0.489
same,relative viability,NCI-H1793; first compound 0.01581 µM,0.405
same,relative viability,NCI-H1793; first compound 0.05 µM,0.398
same,relative viability,NCI-H1793; first compound 0.1581 µM,0.266
same,relative viability,NCI-H1793; first compound 0.5 µM,0.258
